Where “and” joins values, the source holds several entries; their conditions need not be identical. Equal entries are not always repeated.
Conditions: Torsion effusion method

[Br][Yb]([Br])[Br] [ytterbium tribromide]
Crystal
Conditions | vapor or sublimation pressure
891 K | 4.7e-05 kPa
897 K | 7.9e-05 kPa and 6.3e-05 kPa
905 K | 9.3e-05 kPa and 6.3e-05 kPa
906 K | 0.000126 kPa
909 K | 0.00011 kPa
912 K | 7.9e-05 kPa
913 K | 0.00011 kPa
915 K | 0.000158 kPa
916 K | 0.000158 kPa
920 K | 0.000126 kPa
923 K | 0.000158 kPa and 0.000219 kPa
924 K | 0.000219 kPa
926 K | 0.000219 kPa
928 K | 0.000191 kPa
929 K | 0.000158 kPa
932 K | 0.000316 kPa
933 K | 0.000316 kPa
934 K | 0.000347 kPa
936 K | 0.000251 kPa and 0.000219 kPa
937 K | 0.000347 kPa
938 K | 0.000282 kPa
940 K | 0.000427 kPa
942 K | 0.000437 kPa
943 K | 0.000468 kPa
945 K | 0.000468 kPa and 0.000331 kPa
946 K | 0.000347 kPa
947 K | 0.00038 kPa
948 K | 0.000562 kPa
952 K | 0.000631 kPa
953 K | 0.000692 kPa
954 K | 0.000631 kPa
955 K | 0.000525 kPa
956 K | 0.000537 kPa and 0.000501 kPa
958 K | 0.000794 kPa
963 K | 0.000851 kPa
964 K | 0.000933 kPa
965 K | 0.000759 kPa [middle of 4 runs]
969 K | 0.001122 kPa
972 K | 0.001175 kPa
973 K | 0.000977 kPa and 0.001259 kPa
974 K | 0.000933 kPa and 0.00138 kPa
975 K | 0.000977 kPa
978 K | 0.001585 kPa
979 K | 0.001122 kPa
980 K | 0.001585 kPa
982 K | 0.001698 kPa
983 K | 0.00138 kPa
984 K | 0.001349 kPa
985 K | 0.001995 kPa
988 K | 0.002042 kPa
990 K | 0.002188 kPa
991 K | 0.001622 kPa
992 K | 0.001905 kPa
993 K | 0.00257 kPa
994 K | 0.001905 kPa
995 K | 0.002754 kPa
997 K | 0.002692 kPa
1000 K | 0.002399 kPa
1002 K | 0.002512 kPa
1003 K | 0.003631 kPa
1006 K | 0.003467 kPa
1008 K | 0.004169 kPa
1009 K | 0.003162 kPa
1012 K | 0.003388 kPa
1013 K | 0.004677 kPa
1018 K | 0.003981 kPa
1021 K | 0.004365 kPa and 0.00631 kPa
1022 K | 0.006457 kPa
1026 K | 0.005012 kPa
1032 K | 0.005754 kPa

[Cl][Yb]([Cl])[Cl] [ytterbium trichloride]
Crystal
Conditions | vapor or sublimation pressure
944 K | 0.000158 kPa
950 K | 0.000126 kPa
952 K | 0.000126 kPa
953 K | 0.000158 kPa
958 K | 0.000158 kPa and 0.000282 kPa
961 K | 0.000219 kPa
962 K | 0.000191 kPa
966 K | 0.000191 kPa and 0.000251 kPa
970 K | 0.000251 kPa
972 K | 0.000251 kPa
974 K | 0.000347 kPa and 0.000316 kPa
975 K | 0.000316 kPa and 0.000501 kPa
976 K | 0.000282 kPa
980 K | 0.00038 kPa
981 K | 0.00038 kPa
982 K | 0.000437 kPa and 0.00038 kPa
983 K | 0.000437 kPa
986 K | 0.000407 kPa
990 K | 0.000603 kPa and 0.000468 kPa and 0.000537 kPa
992 K | 0.000562 kPa
993 K | 0.000871 kPa
994 K | 0.000631 kPa
996 K | 0.000631 kPa
999 K | 0.000759 kPa and 0.000692 kPa
1000 K | 0.000794 kPa and 0.000759 kPa
1001 K | 0.000724 kPa
1005 K | 0.000851 kPa and 0.001349 kPa
1007 K | 0.001 kPa
1008 K | 0.000912 kPa
1010 K | 0.000977 kPa and 0.001 kPa
1015 K | 0.001175 kPa and 0.00123 kPa
1016 K | 0.001413 kPa
1017 K | 0.00123 kPa and 0.001905 kPa
1019 K | 0.001318 kPa
1020 K | 0.001349 kPa and 0.001549 kPa
1023 K | 0.001514 kPa
1026 K | 0.001622 kPa
1029 K | 0.001698 kPa
1030 K | 0.002884 kPa
1035 K | 0.002188 kPa
1036 K | 0.002089 kPa and 0.002344 kPa and 0.002239 kPa
1038 K | 0.002239 kPa and 0.002188 kPa
1044 K | 0.002692 kPa and 0.00302 kPa and 0.004571 kPa
1046 K | 0.002884 kPa
1048 K | 0.00302 kPa
1050 K | 0.003388 kPa
1052 K | 0.003802 kPa
1053 K | 0.003802 kPa
1054 K | 0.003981 kPa
1055 K | 0.003802 kPa and 0.006761 kPa
1057 K | 0.004074 kPa
1062 K | 0.005129 kPa and 0.005012 kPa
1063 K | 0.004677 kPa and 0.004898 kPa and 0.005012 kPa
1064 K | 0.004898 kPa
1071 K | 0.005888 kPa and 0.006761 kPa and 0.006918 kPa
1072 K | 0.00631 kPa and 0.006918 kPa and 0.006457 kPa
1079 K | 0.008318 kPa
1081 K | 0.008913 kPa and 0.00912 kPa
1082 K | 0.00871 kPa
1087 K | 0.01 kPa
1088 K | 0.01202 kPa and 0.01148 kPa
1090 K | 0.01202 kPa
1096 K | 0.01349 kPa

[I][Yb][I] [ytterbium(II) iodide]
Conditions | vapor or sublimation pressure
968 K, Crystal | 1.9e-05 kPa
975 K, Crystal | 2.8e-05 kPa
976 K, Crystal | 2.8e-05 kPa
978 K, Crystal | 3.8e-05 kPa
982 K, Crystal | 3.8e-05 kPa
987 K, Crystal | 3.8e-05 kPa
989 K, Crystal | 3.8e-05 kPa and 4.8e-05 kPa and 5.6e-05 kPa
991 K, Crystal | 4.8e-05 kPa
996 K, Crystal | 5.6e-05 kPa and 6.6e-05 kPa
997 K, Crystal | 6.3e-05 kPa
998 K, Crystal | 5.6e-05 kPa
999 K, Crystal | 5.6e-05 kPa
1003 K, Crystal | 6.3e-05 kPa
1005 K, Crystal | 8.5e-05 kPa
1006 K, Crystal | 7.6e-05 kPa and 7.9e-05 kPa
1008 K, Crystal | 6.3e-05 kPa and 7.6e-05 kPa
1011 K, Crystal | 8.5e-05 kPa
1013 K, Crystal | 7.9e-05 kPa and 0.000115 kPa
1014 K, Crystal | 9.3e-05 kPa
1015 K, Crystal | 9.5e-05 kPa
1017 K, Crystal | 9.5e-05 kPa
1019 K, Crystal | 9.3e-05 kPa
1020 K, Crystal | 0.000115 kPa
1021 K, Crystal | 0.000141 kPa
1022 K, Crystal | 0.000126 kPa
1023 K, Crystal | 0.00011 kPa
1025 K, Crystal | 0.000132 kPa
1026 K, Crystal | 0.000132 kPa
1029 K, Crystal | 0.000126 kPa
1030 K, Crystal | 0.000158 kPa and 0.000151 kPa and 0.000182 kPa
1034 K, Crystal | 0.00017 kPa
1035 K, Crystal | 0.000158 kPa and 0.00017 kPa and 0.000182 kPa
1038 K, Crystal | 0.000219 kPa
1039 K, Crystal | 0.000174 kPa and 0.000204 kPa
1040 K, Crystal | 0.000209 kPa
1043 K, Crystal | 0.000229 kPa [middle of 4 runs]
1046 K, Crystal | 0.000282 kPa
1049 K, Crystal | 0.000234 kPa and 0.000282 kPa
1068 K, Liquid | 0.000468 kPa
1073 K, Liquid | 0.000501 kPa
1078 K, Liquid | 0.000631 kPa
1082 K, Liquid | 0.000631 kPa
1087 K, Liquid | 0.000759 kPa
1092 K, Liquid | 0.000813 kPa
1098 K, Liquid | 0.001 kPa
1101 K, Liquid | 0.001 kPa
1103 K, Liquid | 0.001202 kPa
1108 K, Liquid | 0.00138 kPa
1111 K, Liquid | 0.001259 kPa
1112 K, Liquid | 0.001445 kPa
1117 K, Liquid | 0.001698 kPa
1119 K, Liquid | 0.001585 kPa
1122 K, Liquid | 0.001862 kPa
1127 K, Liquid | 0.002138 kPa
1128 K, Liquid | 0.001995 kPa
1132 K, Liquid | 0.002239 kPa
1137 K, Liquid | 0.002754 kPa
1138 K, Liquid | 0.002512 kPa
1143 K, Liquid | 0.002951 kPa
1148 K, Liquid | 0.003388 kPa and 0.00309 kPa
1152 K, Liquid | 0.003548 kPa
1158 K, Liquid | 0.004365 kPa and 0.003981 kPa
1162 K, Liquid | 0.004786 kPa
1168 K, Liquid | 0.005754 kPa and 0.005129 kPa
1173 K, Liquid | 0.006026 kPa
1179 K, Liquid | 0.006918 kPa and 0.006761 kPa
1183 K, Liquid | 0.007586 kPa
1189 K, Liquid | 0.00871 kPa
1192 K, Liquid | 0.008913 kPa
